According to ChEMBL document CHEMBL5241106, “Discovery of a Dual Tubulin and Poly(ADP-Ribose) Polymerase-1 Inhibitor by Structure-Based Pharmacophore Modeling, Virtual Screening, Molecular Docking, and Biological Evaluation” (J Med Chem, 2021):
Calls of active or inactive are those of the source. No cut-off for these calls is given here.

Tests used:
Tubulin (Homo sapiens) = Tubulin (Homo sapiens) (UniProt P68371+Q9H4B7+P0DPH7+P68366+Q13509+Q71U36+P04350+Q3ZCM7+P07437+P68363+Q9BQE3+Q6PEY2+Q13885+Q9BVA1+Q9BUF5); test: Inhibition of tubulin polymerization (unknown origin) at 10 uM by turbidimetric analysis; assay type: protein-complex assay
[1] = molecular target: Poly [ADP-ribose] polymerase 1 (Homo sapiens, UniProt P09874); test: Inhibition of PARP1 (unknown origin) using [3H]NAD+ as substrate incubated for 15 mins by scintillation counting analysis
MDA-MB-231 [2] = test: Cytotoxicity against human MDA-MB-231 cells assessed as inhibition of cell growth incubated for 72 hrs by MTT assay; assay type: functional, cell-based
[3] = Cytotoxicity against human MCF-10A cells assessed as inhibition of cell growth incubated for 72 hrs by MTT assay; assay type: toxicity, cell-based
MDA-MB-231 [4] = test: Induction of apoptosis in human MDA-MB-231 cells incubated for 24 hrs by DAPI staining based confocal laser microscopy; assay type: functional, cell-based
MDA-MB-231 [5] = test: Induction of apoptosis in human MDA-MB-231 cells assessed as viable cells at 2.5 uM incubated for 48 hrs by Annexin V-FITC/PI staining based flow cytometry (reference value: 91.4%); assay type: functional; conditions: read-out: Activity
MDA-MB-231 [6] = test: Induction of apoptosis in human MDA-MB-231 cells assessed as early apoptotic cells at 2.5 uM incubated for 48 hrs by Annexin V-FITC/PI staining based flow cytometry (reference value: 1.71%); assay type: functional
MDA-MB-231 [7] = test: Induction of apoptosis in human MDA-MB-231 cells assessed as late apoptotic cells at 2.5 uM incubated for 48 hrs by Annexin V-FITC/PI staining based flow cytometry (reference value: 5.06%); assay type: functional
MDA-MB-231 [8] = test: Induction of apoptosis in human MDA-MB-231 cells assessed as necrotic cells at 2.5 uM incubated for 48 hrs by Annexin V-FITC/PI staining based flow cytometry (reference value: 1.86%); assay type: functional
Tubulin = test: Inhibition of tubulin polymerization (unknown origin) by turbidimetric analysis; assay type: protein-complex assay, Homo sapiens

Sequence of Poly [ADP-ribose] polymerase 1 (P09874 whole entry): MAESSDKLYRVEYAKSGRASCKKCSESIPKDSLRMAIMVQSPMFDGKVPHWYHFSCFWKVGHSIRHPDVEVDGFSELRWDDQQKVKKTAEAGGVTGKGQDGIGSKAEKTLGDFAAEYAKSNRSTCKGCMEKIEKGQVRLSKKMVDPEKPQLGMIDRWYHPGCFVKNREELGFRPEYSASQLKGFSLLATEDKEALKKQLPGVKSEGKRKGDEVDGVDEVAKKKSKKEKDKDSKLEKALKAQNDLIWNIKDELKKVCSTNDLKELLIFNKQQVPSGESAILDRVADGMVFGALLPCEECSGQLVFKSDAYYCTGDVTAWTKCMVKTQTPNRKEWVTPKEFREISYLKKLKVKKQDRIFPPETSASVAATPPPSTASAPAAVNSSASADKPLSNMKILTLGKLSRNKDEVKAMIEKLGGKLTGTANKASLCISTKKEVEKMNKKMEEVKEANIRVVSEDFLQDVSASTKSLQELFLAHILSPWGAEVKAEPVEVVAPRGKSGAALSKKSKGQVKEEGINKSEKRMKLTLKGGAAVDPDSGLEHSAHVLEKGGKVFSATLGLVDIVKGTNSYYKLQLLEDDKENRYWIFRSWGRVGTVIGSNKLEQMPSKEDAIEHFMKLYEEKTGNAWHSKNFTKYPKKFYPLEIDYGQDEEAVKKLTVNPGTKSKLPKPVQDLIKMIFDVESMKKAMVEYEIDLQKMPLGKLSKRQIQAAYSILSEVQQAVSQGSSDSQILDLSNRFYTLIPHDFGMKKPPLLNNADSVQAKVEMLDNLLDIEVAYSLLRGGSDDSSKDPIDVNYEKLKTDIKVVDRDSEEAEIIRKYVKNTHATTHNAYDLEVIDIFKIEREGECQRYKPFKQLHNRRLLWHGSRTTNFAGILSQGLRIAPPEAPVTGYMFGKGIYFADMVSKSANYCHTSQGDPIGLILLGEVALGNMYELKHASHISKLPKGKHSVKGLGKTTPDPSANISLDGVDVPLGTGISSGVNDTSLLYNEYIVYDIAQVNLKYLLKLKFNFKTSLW

Compound	inhibition (Tubulin (Homo sapiens)) [%]	also measured
Cc1cccc(-c2nc(O)c3ccccc3n2)c1	43	–
O=c1[nH]c(/C=C/c2cccc([N+](=O)[O-])c2)nc2ccccc12	65	–
O=c1[nH]c(/C=C/c2ccccc2)nc2ccccc12	82	–
COc1ccc(-c2nc(O)c3ccccc3n2)cc1	47	–
COc1cc(/C=C/c2nc(O)c3ccccc3n2)ccc1O	69	–
Cc1ccc(-c2nc3ccccc3c(=O)[nH]2)cc1	45	–
COc1cc2c(c(OC)c1OC)-c1ccc(OC)c(=O)cc1[C@@H](NC(C)=O)CC2 [COLCHICINE]	–	IC50 [1]: Not Active; Activity (MDA-MB-231 [2]): Active; IC50 at 72 h [3]: 6 nM; Activity (MDA-MB-231 [4]): Active; viability at 2.5 µM (MDA-MB-231 [5]): 88%; Activity (MDA-MB-231 [6]): 1.89%; Activity (MDA-MB-231 [7]): 8.1%; Activity (MDA-MB-231 [8]): 2.04%
CN(C)C(=O)Cc1ccc2[nH]c(=O)c3ccccc3c2c1	–	IC50 (Tubulin): Not Active
COc1ccc(-c2nc3ccccc3c(=O)[nH]2)cc1C	49	–
O=c1[nH]c(/C=C/c2cc(Br)ccc2O)nc2ccccc12	63	–
O=c1[nH]c(/C=C/c2ccc([N+](=O)[O-])cc2)nc2ccccc12	61	–
